The values below come from patent US12065438B2, “Substituted tricyclic compounds as indoleamine 2,3-dioxygenase inhibitors” (Merck Sharp & Dohme LLC, priority 2019, dated 2024).

Assay [1] has as its target T1, IDO1 (Homo sapiens, UniProt P14902). The assay can be described thus: IDO1 Cellular Assay in HeLa Cells Stimulated with IFNγ. It is filed as cell-based. Also on record: endogenous in cells; host or cells: HeLa cells stimulated with IFNγ. The following applies: HeLa cells stimulated with IFNγ 100 ng/mL, 300 uM L-tryptophan, about 48 hours, fluorescence readout; read-out: IDO1 HELA Cell Assay, IC50. On the procedure:
Biological Assays IDO1 Cellular Assay in HeLa Cells Stimulated with IFNγ HeLa cells were cultured in complete HeLa culture medium (90% EMEM, 10% heat-inactivated fetal bovine serum) and expanded to about 1×10^9 cells. The cells were then collected and frozen down at 1×10^7 cells/vial in 1 mL frozen medium (90% complete HeLa culture medium, 10% DMSO). Compounds to be tested were serially diluted in ten 3-fold steps in DMSO starting from 10 mM DMSO stocks in Echo low volume plate(s). Compound dilutions or DMSO alone were then dispensed from the dilution plate(s) into Greiner black 384-well assay plate(s) (catalog #781086, 50 nL/well) using an Echo 550 acoustic liquid handler (Labcyte). Frozen HeLa cells were thawed and transferred into HeLa assay medium (99% complete HeLa culture medium, 1% Pen/Strep) with 20 mL medium/vial of cells. The cells were spun down at 250 g in a table top centrifuge for 5 min and suspended in same volume of HeLa assay medium. The cells were then counted and adjusted to a density of 2×10^5 cells/mL in HeLa assay medium. Sterile L-tryptophan were added to the cells with final concentration of 300 uM L-tryptophan. A small aliquot (2 mL/plate) of HeLa cells were set aside and were not treated with IFNγ, to serve as the Max-E control. The rest of HeLa cells were added with sterile IFNγ (Cat #285-IF, R & D systems) with a final concentration of 100 ng/mL. HeLa cells with and without IFNγ were dispensed to the respective wells of 384-well assay plates containing the compounds. The plates were incubated for about 48 hours at a 37° C., 5% CO2 incubator. Afterwards, 12 μL of 0.5 M methyl isonipecotate in dimethyl sulfoxide were added into each well and the plates were sealed and incubated at 37° C. without CO2 overnight. The plates were centrifuged for 1 min at 200×g. The resulting fluorescence was measured in a Spectramax plate reader (Molecular Devices) with a 400 nm excitation filter and a 510 nm emission filter. The fluorescence intensity of each well was corrected for the background observed in wells with non-IFNγ-treated cells and was expressed as a fraction of the intensity observed in wells of IFNγ-treated cells and DMSO only. Potencies were calculated by […] least squares fit to the four parameter logistic IC50 equation.

Assay [2] addresses T1, IDO1. In words: IDO1 Human Whole Blood Assay. The assay is classed as cell-based. The following applies: LPS and IFNγ 100 ng/mL, overnight (18 h), kynurenine by LC/MS/MS. On the procedure: IDO1 Human Whole Blood Assay
Compounds to be tested were serially diluted in ten 3-fold steps in DMSO starting from 10 mM. 3 μL of compound dilutions or DMSO alone were then dispensed from the dilution plate into a polypropylene 96-well assay plate containing 97 μL of RPMI medium using an Echo 555 acoustic liquid handler (Labcyte). LPS and IFNγ was prepared in RPMI medium to a 10× of final conc. (1000 ng/mL), final concentration is 100 ng/mL.
240 μL of blood was transferred to each of the wells of a v-bottom 96 well plate. 30 μL of compound was transferred from intermediate dilution plate, and incubated for 15 min. 30 μL from stimulants was then transferred to blood and mixed thoroughly. Plate was covered with breathable membrane and incubated at 37° C. for overnight (18 h).
On day 2, isotope labeled standard solutions of kynurenine and tryptophan was made in water at 10× concentration and 30 μL was added to the blood at 3 μM final concentration. The assay plates were centrifuged at 300×G for 10 min with no brake to separate plasma from red blood cells. 60 μL of plasma samples was removed without disturbing red blood cells. Plasma was diluted with RPMI in 1:1 ratio and proteins were precipitated out with two volumes of Acetonitrile. The plates were centrifuged at 4000×G for 60 min. 20 μL of supernatant was carefully transferred to a 384 well plate containing 40 μL of 0.1% formic acid in water and analyzed by LC/MS/MS.
LC/MS/MS analyses were performed using Thermo Fisher's LX4-TSQ Quantum Ultra system. This system consists of four Agilent binary high-performance liquid chromatography (HPLC) pumps and a TSQ Quantum Ultra triple quadrupole MS/MS instrument. For each sample, 5 μL were injected onto an Atlantis T3 column (2.1 mm×150 mm, 3 μm particle size) from Waters. The mobile phase gradient pumped at 0.8 mL/min was used to elute the analytes from the column at 25° C. The elution started at 0% B increasing linearly to 25% B at 6.5 min, holding at 25% for 1 min, re-equilibrating to 10 min. Mobile phase A consisted of 0.1% formic acid in water. Mobile phase B consisted of 0.1% of formic acid in acetonitrile. Data were acquired in positive mode using a HESI interface. The operational parameters for the TSQ Quantum Ultra instrument were a spray voltage of 4000 V, capillary temperature of 380° C., vaporizer temperature 400° C., shealth gas 60 arbitrary units, Aux gas 20 arbitrary units, tube lens 85 and collision gas 1.2 mTorr. SRM chromatograms of kynurenine (Q1: 209.2>Q3:94.0) and internal standard (Q1: 215.3>Q3:98.2) were collected for 90 sec. The peak area was integrated by Xcalibur Quan software. The ratios between the kynurenine generated in the reaction and 2D6-Kynurenine spiked-in internal standard were used to generate percentage inhibition and IC50 values. Compounds were titrated and IC50's were calculated by 4 parameter sigmoidal curve fitting formula.

T1 sequence (P14902 whole entry): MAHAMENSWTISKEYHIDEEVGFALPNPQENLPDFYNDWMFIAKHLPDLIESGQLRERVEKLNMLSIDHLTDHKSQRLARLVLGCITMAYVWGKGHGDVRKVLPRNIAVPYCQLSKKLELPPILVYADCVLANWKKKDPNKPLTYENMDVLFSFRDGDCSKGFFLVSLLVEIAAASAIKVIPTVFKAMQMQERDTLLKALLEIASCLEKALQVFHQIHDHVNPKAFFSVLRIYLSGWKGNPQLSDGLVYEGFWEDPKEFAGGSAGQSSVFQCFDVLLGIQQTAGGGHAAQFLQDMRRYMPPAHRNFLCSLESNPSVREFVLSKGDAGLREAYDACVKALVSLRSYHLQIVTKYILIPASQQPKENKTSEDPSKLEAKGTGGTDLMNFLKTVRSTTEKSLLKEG

The IC50 is the concentration at which inhibition is half-maximal. As for `O=C(C1CC1)N1CC2CC2c2cc(C3(C(=O)Nc4ccc(F)cc4)CCC3)ccc21` (single isomer, unassigned) [Example 4, 1-(3-(cyclopropanecarbonyl)-1a,2,3,7b-tetrahydro-1H-cyclopropa[c]quinolin-6-yl)-N-(4-fluorophenyl)cyclobutanecarboxamide], the IC50 on IDO1 [1] was found to be 2.92 nM; at IDO1 [2], 37 nM.
The corresponding values for `O=C(NC1(c2ccc3c(n2)[C@@H]2C[C@@H]2CN3C(=O)OC2CC2)CC1)c1ccc(F)cc1` (single isomer, unassigned) [Example 21] are 6.03 nM and 946 nM.
For `CC(C)(O)c1nccc(N2CC3CC3c3nc(C4(NC(=O)c5ccc(F)cc5)CC4)ccc32)n1` (centres unmarked) [Example 18, 4-fluoro-N-(1-(5-(2-(2-hydroxypropan-2-yl)pyrimidin-4-yl)-6,6a,7,7a-tetrahydro-5H-cyclopropa[c][1,5]naphthyridin-2-yl)cyclopropyl)benzamide] the same measures were 12 nM and 248 nM.
The corresponding values for `C[C@@H](NC(=O)c1ccc(F)cc1)c1ccc2c(n1)[C@@H]1C[C@@H]1CN2C(=O)OC1CC1` [Example 27, cyclopropyl (6aS,7aR)-2-((R)-1-(4-fluorobenzamido)-ethyl)-6,6a,7,7a-tetrahydro-5H-cyclopropa[c][1,5]-naphthyridine-5-carboxylate] are 3.23 nM and 463 nM.
Regarding `CCc1nccc(N2CC3CC3c3nc(C4(NC(=O)c5ccc(F)cc5)CC4)ccc32)n1` (centres unmarked) [Example 14, N-(1-(5-(2-ethylpyrimidin-4-yl)-6,6a,7,7a-tetrahydro-5H-cyclopropa[c][1,5]-naphthyridin-2-yl)cyclo-propyl)-4-fluorobenzamide], the IC50 at IDO1 [1] was 3.5 nM; against IDO1 [2], 105 nM.
The corresponding values for `CCC(NC(=O)c1ccc(F)cc1)c1ccc2c(n1)C1CC1CN2C(=O)OC1CC1` (single isomer, unassigned) [Example 37, cyclopropyl 2-(1-(4-fluorobenzamido)propyl)-6,6a,7,7a-tetrahydro-5H-cyclopropa[c][1,5]naphthyridine-5-carboxylate] are 2.83 nM and 54 nM.
For `CC(C)(NC(=O)c1ccc(F)cc1)c1ccc2c(n1)[C@@H]1C[C@@H]1CN2C(=O)OC1CC1` (single isomer, unassigned) [Example 33] the same measures were 4.05 nM and 465 nM.
Consider “4-fluoro-N-(2-((6aS,7aR)-5-(2-methylpyrimidin-4-yl)-6,6a,7,7a-tetrahydro-5H-cyclopropa[c][1,5]naphthyridin-2-yl)propan-2-yl)benzamide [Example 30]”, for which the IC50 on IDO1 [1] came out at 6.6 nM; against IDO1 [2], 126 nM.
The corresponding values for `CC(C)(NC(=O)c1ccc(F)cc1)c1ccc2c(n1)C1CC1CN2C(=O)OC1CC1` (single isomer, unassigned) [Example 32, cyclopropyl 2-(2-(4-fluorobenzamido)propan-2-yl)-6,6a,7,7a-tetrahydro-5H-cyclopropa[c][1,5]naphthyridine-5-carboxylate] are 7.56 nM and 778 nM.
Turning to `CC(C)(NC(=O)c1ccc(F)cc1)c1ccc2c(n1)C1CC1CN2C(=O)C(F)(F)F` (centres unmarked) [Example 35, 2-(2-(4-fluorobenzamido)propan-2-yl)-5-(2,2,2-trifluoroacetyl)-6,6a,7,7a-tetrahydro-5H-cyclopropa[c][1,5]naphthyridin-1-ium], the IC50 on IDO1 [1] came out at 1300 nM; against IDO1 [2], 778 nM.
For `O=C(NC1(c2ccc3c(n2)C2CC2CN3c2ccnc(CO)n2)CC1)c1ccc(F)cc1` (centres unmarked) [Example 19, 4-fluoro-N-(1-(5-(2-(hydroxymethyl)pyrimidin-4-yl)-6,6a,7,7a-tetrahydro-5H-cyclopropa[c][1,5]naphthyridin-2-yl)cyclopropyl)benzamide] the same measures were 11 nM and 151 nM.
For `O=C(NC1(c2ccc3c(n2)C2CC2CN3c2ccnc(C3CC3)n2)CC1)c1ccc(F)cc1` (centres unmarked) [Example 15, N-(1-(5-(2-cyclopropyl-pyrimidin-4-yl)-6,6a,7,7a-tetrahydro-5H-cyclo-propa[c][1,5]naphthyridin-2-yl)cyclopropyl)-4-fluorobenzamide] the same measures were 4.4 nM and 50 nM.
For `O=C(NC1(c2ccc3c(n2)C2CC2CN3c2ccnc(C3CC3)n2)CC1)c1ccc(F)cc1` (centres unmarked) [Example 16, N-(1-(5-(2-cyclopropyl-pyrimidin-4-yl)-6,6a,7,7a-tetrahydro-5H-cyclo-propa[c][1,5]naphthyridin-2-yl)cyclopropyl)-4-fluorobenzamide] the same measures were 2.6 nM and 32 nM.
